Assay results: patent US8541002B2, “Vaccine for treatment and prevention of herpes simplex virus infection” (Agenus Inc., priority 2003, dated 2013)

Assay: Turbidity assay for solubility of the peptides
Assay type: physicochemical
Conditions: solubility of the antigenic peptides in water or Dimethyl Sulfoxide (DMSO)
Procedure: A number of antigenic peptides of the invention were synthesized by chemical synthesis as described in Section 5.1.1.
A turbidity assay was used to assess the solubility of the peptides. Turbidity assays used either a Varian Cary double-beam spectrophotometer, or a Molecular Devices Spectromax absorbance plate reader (for high throughput experiments). The spectrophotometer assay read every 2 nm between 340 nm and 360 nm, and averaged the values. Samples were analyzed in duplicate using a quartz micro-cuvette that holds about 200 uL. The plate reader assay used a 96-well plate format that read every 4 nm between 340 nm and 360 nm and averaged those values. Samples in this assay were run in triplicate.

Structure (SMILES)	Solubility
CC(C)C[C@H](NC(=O)[C@H](C)NC(=O)[C@H](CCCNC(=N)N)NC(=O)[C@@H](NC(=O)[C@@H](NC(=O)[C@H](Cc1c[nH]cn1)NC(=O)CNC(=O)CNC(=O)[C@H](CC(C)C)NC(=O)[C@H](CO)NC(=O)[C@H](CC(C)C)NC(=O)[C@H](CO)NC(=O)[C@H](CCCNC(=N)N)NC(=O)[C@@H]1CCCN1C(=O)[C@H](C)NC(=O)[C@@H](NC(=O)[C@H](CCCNC(=N)N)NC(=O)[C@@H]1CCCN1C(=O)[C@H](CC(N)=O)NC(=O)CN)[C@@H](C)O)[C@@H](C)O)C(C)C)C(=O)N[C@@H](CO)C(=O)N1CCC[C@H]1C(=O)N[C@H](C(=O)N1CCC[C@H]1C(=O)N1CCC[C@H]1C(=O)N[C@@H](Cc1c[nH]c2ccccc12)C(=O)N1CCC[C@H]1C(=O)NCC(=O)N[C@H](C(=O)N[C@@H](CC(=O)O)C(=O)N[C@@H](CC(=O)O)C(=O)N[C@@H](CCC(=O)O)C(=O)N[C@@H](CC(=O)O)C(=O)N[C@@H](CC(=O)O)C(=O)N[C@@H](CC(=O)O)C(=O)O)[C@@H](C)O)[C@@H](C)O [RL02-1]	water
CC[C@H](C)[C@H](NC(=O)[C@@H]1CCCN1C(=O)[C@H](CC(C)C)NC(=O)[C@H](Cc1ccc(O)cc1)NC(=O)[C@@H](N)CCCNC(=N)N)C(=O)N[C@@H](C)C(=O)NCC(=O)N[C@H](C(=O)N[C@@H](CO)C(=O)N[C@@H](CO)C(=O)N[C@H](C(=O)N[C@H](C(=O)N[C@@H](C)C(=O)N[C@@H](CC(C)C)C(=O)N[C@@H](C)C(=O)N1CCC[C@H]1C(=O)N[C@@H](Cc1ccc(O)cc1)C(=O)N[C@H](C(=O)N[C@@H](CC(N)=O)C(=O)N[C@@H](CCCCN)C(=O)N[C@H](C(=O)N[C@H](C(=O)N[C@H](C(=O)NCC(=O)N[C@@H](CC(=O)O)C(=O)N[C@@H](CS)C(=O)N[C@@H](CC(C)C)C(=O)N1CCC[C@H]1C(=O)N[C@H](C(=O)N[C@@H](CC(C)C)C(=O)N[C@@H](CC(=O)O)C(=O)N[C@@H](CCSC)C(=O)N[C@@H](CCC(=O)O)C(=O)N[C@H](C(=O)NCC(=O)O)[C@@H](C)O)C(C)C)[C@@H](C)O)C(C)C)[C@@H](C)O)C(C)C)C(C)C)C(C)C)C(C)C [RL02-2]	DMSO
CSCC[C@H](NC(=O)[C@H](C)N)C(=O)N[C@@H](CO)C(=O)N[C@@H](CCCNC(=N)N)C(=O)N[C@@H](CCCNC(=N)N)C(=O)N[C@@H](Cc1ccc(O)cc1)C(=O)N[C@@H](CC(=O)O)C(=O)N[C@@H](CCCNC(=N)N)C(=O)N[C@@H](C)C(=O)N[C@@H](CCC(N)=O)C(=O)N[C@@H](CCCCN)C(=O)NCC(=O)N[C@@H](Cc1ccccc1)C(=O)N[C@@H](CC(C)C)C(=O)N[C@@H](CC(C)C)C(=O)N[C@H](C(=O)N[C@@H](CO)C(=O)N[C@@H](CC(C)C)C(=O)N[C@@H](CCCNC(=N)N)C(=O)N[C@@H](CCCNC(=N)N)C(=O)N[C@@H](C)C(=O)N[C@@H](Cc1ccc(O)cc1)C(=O)N[C@@H](C)C(=O)N1CCC[C@H]1C(=O)N[C@@H](CC(C)C)C(=O)N[C@@H](CC(C)C)C(=O)N[C@@H](C)C(=O)N[C@@H](CCCNC(=N)N)C(=O)N[C@@H](CCC(=O)O)C(=O)N[C@@H](CC(N)=O)C(=O)N[C@@H](C)C(=O)N[C@@H](C)C(=O)N[C@@H](CC(C)C)C(=O)N[C@H](C(=O)NCC(=O)O)[C@@H](C)O)[C@@H](C)O [RS01-2]	water
CSCC[C@H](NC(=O)[C@H](Cc1ccccc1)NC(=O)[C@H](C)NC(=O)CNC(=O)[C@@H](NC(=O)[C@H](Cc1ccccc1)NC(=O)[C@H](CCCNC(=N)N)NC(=O)[C@@H]1CCCN1C(=O)[C@H](CC(=O)O)NC(=O)[C@H](CCC(N)=O)NC(=O)[C@@H](NC(=O)[C@H](CO)NC(=O)[C@@H](NC(=O)CNC(=O)[C@@H](N)CCC(=O)O)C(C)C)[C@@H](C)O)C(C)C)C(=O)N[C@@H](C)C(=O)N[C@@H](C)C(=O)N[C@@H](CCCCN)C(=O)N[C@@H](C)C(=O)N[C@@H](C)C(=O)N[C@@H](Cc1c[nH]cn1)C(=O)N[C@@H](CC(C)C)C(=O)N[C@@H](CCC(=O)O)C(=O)N[C@@H](CC(C)C)C(=O)N[C@@H](CCC(=O)O)C(=O)N[C@@H](C)C(=O)N[C@@H](CCCNC(=N)N)C(=O)N[C@@H](CC(C)C)C(=O)N[C@@H](CCCCN)C(=O)N[C@@H](CO)C(=O)N[C@@H](CCCNC(=N)N)C(=O)N[C@@H](C)C(=O)N[C@@H](CCCNC(=N)N)C(=O)N[C@@H](CC(C)C)C(=O)N[C@@H](CCC(=O)O)C(=O)O [UL14-1]	water
CC[C@H](C)[C@H](NC(=O)[C@H](CCCCN)NC(=O)[C@@H](N)C(C)C)C(=O)N[C@@H](CCCNC(=N)N)C(=O)N[C@H](C(=O)N[C@@H](CCC(=O)O)C(=O)N[C@@H](CCC(=O)O)C(=O)N[C@@H](CCC(N)=O)C(=O)N[C@@H](C)C(=O)N[C@@H](C)C(=O)N[C@@H](CCCNC(=N)N)C(=O)N[C@@H](CCCNC(=N)N)C(=O)N[C@@H](CC(=O)O)C(=O)N[C@@H](Cc1ccccc1)C(=O)N[C@@H](CC(C)C)C(=O)N[C@H](C(=O)N[C@@H](C)C(=O)N[C@@H](Cc1c[nH]cn1)C(=O)N[C@@H](CCCNC(=N)N)C(=O)N[C@@H](CCCNC(=N)N)C(=O)N[C@@H](Cc1ccc(O)cc1)C(=O)N[C@@H](CC(C)C)C(=O)N[C@@H](CC(=O)O)C(=O)N1CCC[C@H]1C(=O)N[C@@H](C)C(=O)N[C@@H](CC(C)C)C(=O)N[C@@H](CO)C(=O)N[C@@H](CCC(=O)O)C(=O)N[C@@H](CCCNC(=N)N)C(=O)N[C@@H](CC(C)C)C(=O)N[C@@H](CC(=O)O)C(=O)N[C@@H](C)C(=O)N[C@@H](C)C(=O)N[C@@H](CC(=O)O)C(=O)N[C@@H](CC(=O)O)C(=O)O)[C@@H](C)O)C(C)C [UL14-2]	water
CSCC[C@H](NC(=O)[C@H](CC(C)C)NC(=O)[C@H](CC(N)=O)NC(=O)[C@H](CCC(=O)O)NC(=O)[C@H](CC(C)C)NC(=O)[C@H](CC(C)C)NC(=O)[C@@H](NC(=O)[C@@H]1CCCN1C(=O)[C@H](Cc1ccccc1)NC(=O)[C@H](CCCNC(=N)N)NC(=O)[C@H](CCCNC(=N)N)NC(=O)[C@@H](NC(=O)[C@@H](NC(=O)[C@H](CCC(=O)O)NC(=O)CNC(=O)[C@@H](N)CC(C)C)C(C)C)[C@@H](C)O)C(C)C)C(=O)N[C@@H](CCCNC(=N)N)C(=O)N[C@@H](C)C(=O)N[C@@H](CC(C)C)C(=O)N[C@@H](CCC(=O)O)C(=O)NCC(=O)N[C@H](C(=O)N[C@@H](C)C(=O)N1CCC[C@H]1C(=O)N[C@@H](CC(=O)O)C(=O)N[C@@H](C)C(=O)N[C@@H](Cc1ccccc1)C(=O)N[C@@H](Cc1ccccc1)C(=O)N[C@@H](Cc1c[nH]cn1)C(=O)N[C@H](C(=O)N[C@@H](C)C(=O)N[C@@H](Cc1ccc(O)cc1)C(=O)N[C@@H](C)C(=O)N[C@@H](CC(C)C)C(=O)N[C@@H](C)C(=O)O)[C@@H](C)O)[C@@H](C)O [UL17-2]	water
CC[C@H](C)[C@H](NC(=O)[C@@H](NC(=O)[C@H](CC(=O)O)NC(=O)[C@H](CCCNC(=N)N)NC(=O)[C@H](C)N)C(C)C)C(=O)N[C@@H](CCCNC(=N)N)C(=O)N[C@@H](CCC(=O)O)C(=O)N[C@H](C(=O)N[C@@H](CC(=O)O)C(=O)N[C@@H](C)C(=O)N[C@@H](Cc1ccccc1)C(=O)N[C@@H](Cc1ccc(O)cc1)C(=O)NCC(=O)N[C@@H](CC(=O)O)C(=O)N[C@@H](CC(C)C)C(=O)N[C@@H](C)C(=O)N[C@@H](CC(=O)O)C(=O)N[C@@H](CC(C)C)C(=O)N[C@@H](CC(=O)O)C(=O)N[C@@H](CC(C)C)C(=O)N[C@@H](CCC(N)=O)C(=O)N[C@@H](CC(C)C)C(=O)N[C@@H](CCCNC(=N)N)C(=O)N[C@@H](C)C(=O)N[C@@H](C)C(=O)N1CCC[C@H]1C(=O)N1CCC[C@H]1C(=O)N[C@@H](C)C(=O)N[C@@H](CC(N)=O)C(=O)N[C@@H](CC(C)C)C(=O)N[C@@H](Cc1ccc(O)cc1)C(=O)N[C@@H](C)C(=O)N[C@@H](CCCNC(=N)N)C(=O)N[C@@H](CC(C)C)C(=O)NCC(=O)O)[C@@H](C)O [UL36-4]	DMSO
